From patent US20030082135A1, “Pathway of RANTES-mediated chemokine synthesis in astrocytes and methods of use therefor” (priority 2001, published 2003)
“Also recorded” adds a separate entry of the source. Where two headings read alike, the source gives them in different places. Each block holds one molecule with its values, some of them ahead of it. Where no end group is shown, it is not given here.

Assays:
[1] = tested on: primary neonatal mouse astrocyte cultures; assay: RNase protection assay (RPA) for chemokine/cytokine transcripts in astrocyte cultures; format: cell-based; settings: for expression of TNF-α, RANTES, KC, MIP-1α, MIP-2, and MCP-1 transcripts: BALB/cJ neonatal astrocytes, chemokine for 6 h; for expression of transcripts for MIP-1α: PKA inhibitors alone, 3 h
Method: Astrocyte isolation and culture. […] RNA isolation and RNase protection assay (RPA). […] RNase protection assays (RPA) for chemokine message were conducted with multi-probe templates according to the manufacture's protocol (RiboQuant assay kit, BD-PharMingen, San Diego, Calif.). Gels were scanned and radioactive bands quantitated using a phosphoimager (Molecular Dynamics, Sunnyvale, Calif.). Levels of uniformly expressed housekeeping genes large ribosomal subunit protein 32-3A (L32) or glyceraldehyde-3-phosphate dehydrogenase (GAPDH), were used for normalization. The value of each chemokine receptor band divided by the value of the indicated housekeeping gene band in the same sample yielded the relative intensity. Normalized receptor expression represents the ratio of the relative intensity following treatment with chemokine versus the relative intensity of medium alone. Treatment with pharmacological inhibitors. Astrocytes were washed and resuspended in serum-and insulin-free complete medium and starved overnight. Cells were treated at 37° C. for 1 h with 100 ng/ml Pertussis toxin (PTx) before addition of RANTES or IL-1. […] The cells were harvested after a 3 h incubation with RANTES; RNA was prepared and assayed by RPA.

murine KC promoter = assay: KC promoter luciferase reporter in transfected astrocytes; format: cell-based, mouse; settings: U0126 indicated amounts or 5 μM SB203580 plus 100 ng/ml RANTES, 24 h
Text: Plasmids, transient transfection, and luciferase activity assay. The KC reporter plasmid was constructed by using a luciferase reporter gene pGL-3 basic vector (Promega, Madison, Wis.) driven by mouse KC promoter (−2878/+43). Wild-type p90RSK expression (WT pKH3) and dominant negative p90RSK expression (ΔΔ RSK pKH3) plasmids were obtained from Dr. John Blenis, Harvard Medical School. Astrocytes were transiently transfected with Lipofectamine 2000 reagent (Life Technologies, Gaithersburg, Md.) according to the manufacturer's protocol. After 24 h, the cells were stimulated with RANTES in absence or presence of the indicated inhibitor, and luciferase activity was determined after an additional 24 h, by the procedure according to the manufacturer (Promega, Madison, Wis.). Relative luciferase activity was normalized for cell lysate protein concentration as determined by BCA protein assay kit (Pierce, Rockford, Ill.). The Relative Fold Induction is the relative intensity of the experimental sample divided by the relative intensity of the medium control.
To establish whether RANTES up-regulation of chemokine production is mediated by activation of promoter elements, primary astrocyte cultures were transiently transfected with a murine KC promoter-luciferase construct, and reporter activity was monitored after RANTES treatment.

[2] = tested on: MEK, ERK1/2, p90RSK, p38, SAPK/JNK phosphorylation in astrocytes; assay: Western blotting of phosphorylated MAP kinase pathway proteins in astrocyte lysates; format: cell-based, mouse; settings: for effect on erk1/2 and RSK phosphorylation induced by H-89: 10-50 μM U0126 or 5 μM SB203580, 10 μM H-89 for 20 min
Method: SDS-PAGE and Western blotting. Astrocytes were treated for the indicated time with media or 100 ng/ml RANTES, eotaxin, or other materials as indicated. Cells (3×10^5 in Examples 1-3, or 2×10^4 in later Examples) were resuspended in 100 μl buffer (50 mM HEPES, pH 7.5, 150 mM NaCl, 2 mM EDTA, 2 mM EGTA, 1% Triton X-100, 50 mM Sodium fluoride, 5 mM Sodium pyrophosphate, 50 mM Sodium β-glycerophosphate, 1 mM Sodium Ortho-vanadate, 1 mM DTT, 1 mM PMSF, 10 μg/ml Leupeptin, and 10 μg/ml Aprotinin). Protein concentration of the whole cell extract was determined by BCA protein assay kit (Pierce, Rockford, Ill.). Samples (10 μg) were loaded and separated on a 10% SDS-polyacrylamide gel. After transfer to Hybond ECL nitrocellulose membrane (Amersham Pharmacia Biotech Inc, Piscataway, N.J.) or Zeta-probe blotting membranes (Bio-Rad, Richmond Calif.) blots were blocked overnight with 5% BSA at 4° C., and probed with the antibody indicated. Antibody against unphosphorylated or phosphorylated erk (Cell Signaling, Beverly, Mass.) was used at 1 μg/ml. Appropriate anti-immunoglobulin reagents were used to develop the blots by enhanced chemiluminescence (Amersham Pharmacia Biotech Inc, Piscataway, N.J.).
Little is known about the signaling mechanisms involved in astrocyte respones to chemokines. To examine components of the RANTES signal transduction pathway, phosphorylation of the MAP kinase kinase (MEK) and mitogen activated protein (MAP) kinases was examined. To minimize basal kinase activity, astrocytes were starved of serum for at least 3 h before treatment with chemokine. Whole cell lysates were separated by SDS-PAGE and examined by Western blot. Antibodies that specifically react with phosphorylated MEK or phosphorylated extracellular signal-related kinase (ERK) were used to detect the active kinases.

PKA = PKA activity assay on lysates of treated astrocytes; format: cell-based, mouse
Method: PKA activity assay. PKA activity was determined using a commercially available kit (Calbiochem, San Diego, Calif.) according to manufacturer's recommendations. Primary mouse astrocytes were grown in 6-well plates and then stimulated as described and lysed in 100 μl buffer (same buffer used for Western blotting) for 30 min. Five μl of the lysates were incubated with 20 μl PKA reaction mixture at 30° C. for 30 min. The reaction was terminated by adding 10 μl stop solution and ^32P radioactivity was counted.

[3] = tested on: CXCR4, CX3CR1, CCR1, CCR5 transcripts in astrocytes; assay: RPA for chemokine receptor transcripts in astrocytes; format: cell-based, mouse
Method: RNA isolation and RNase protection assay (RPA). RNA was prepared as in Luo, Y., et al. 1999. J Immunol 163:3985. RNase protection assays (RPA) for chemokine message were conducted with multi-probe templates according to the manufacture's protocol (RiboQuant assay kit, BD-PharMingen, San Diego, Calif.). Gels were scanned and radioactive bands quantitated using a phosphoimager (Molecular Dynamics, Sunnyvale, Calif.). Levels of uniformly expressed housekeeping genes large ribosomal subunit protein 32-3A (L32) or glyceraldehyde-3-phosphate dehydrogenase (GAPDH), were used for normalization. The value of each chemokine receptor band divided by the value of the indicated housekeeping gene band in the same sample yielded the relative intensity. Normalized receptor expression represents the ratio of the relative intensity following treatment with chemokine versus the relative intensity of medium alone.
Treatment with the RANTES-related chemokines RANTES or eotaxin, or with TNF-α also found to down-regulate expression of CX3CR1 transcripts. In addition, CXCR4 mRNA levels were decreased, while the levels of CCR1 transcripts were elevated. In contrast, little or no regulation of CCR5 was noted. The pooled results of 3-4 experiments indicate eotaxin caused an average 60% decrease in CXCR4 (P less than 0.01) and a 70% decrease in CX3CR1 mRNA (P less than 0.02) (FIG. 8.B). The effects of RANTES stimulation were similar with an average 70 and 90% reduction in CXCR4 and CX3CR1 transcripts, respectively (P less than 0.01).

[4] = tested on: intracellular cAMP in astrocytes; assay: Intracellular cAMP in astrocytes (EIA); format: cell-based, mouse; settings: 1 μM forskolin, 1 h
Method: FIG. 8 is a set of bar graphs showing that RANTES reduced intracellular cAMP accumulation in astrocytes. Panel A. Astrocytes were treated with the indicated doses of RANTES or TCA4 for 5 min. Intracellular cAMP was detected as described in Materials and Methods. Values represent the mean±S.E.M of triplicate experiments. Panel B. Kinetics of intracellular cAMP levels. Astrocytes were treated with 100 ng/ml RANTES for indicated times. Panel C. RANTES inhibited forskolin-induced intracellular cAMP accumulation. Astrocytes were pretreated with 1 μM forskolin for 1 h then stimulated with the indicated amount of RANTES for 5 min. Intracellular cAMP was determined by EIA. Values are presented as relative cAMP level and represent the mean±S.E.M. of triplicate experiments.
To further elucidate the RANTES-mediated signaling pathway in astrocytes, intracellular cAMP levels were evaluated following chemokine stimulation. Primary mouse astrocytes were incubated with the indicated dose of RANTES or the negative control chemokine, TCA4 for 5 min and monitored for cAMP levels. RANTES (100 ng/ml) decreased intracellular cAMP levels by 68% in a dose dependent fashion (FIG. 8A).

effects on KC and MIP-2 transcription ([1]; 500 μM, peaking at 2 h): weak and transient
Molecule: CCCC(=O)Nc1ncnc2c1ncn2[C@@H]1O[C@@H]2COP(=O)(O)O[C@H]2[C@H]1OC(=O)CCC [db-cAMP, dibutyryl cAMP, reference compound]
effect of cAMP analogue alone on transcription ([1]; 500 μM, no RANTES): Neither cAMP analogue alone had any effect
effect on astrocyte PKA activity (PKA; 1 μM forskolin, 500 μM db-cAMP or 500 μM 8-bromo-cAMP, 1 h): activated

expression of TNF-α, RANTES, KC, MIP-1α, MIP-2, and MCP-1 transcripts [1]: no effect
Molecule: SDF-1α

expression of transcripts for MIP-1α [1]: induced
Molecule: O=S(=O)(NCCNC/C=C/c1ccc(Br)cc1)c1cccc2cnccc12 [H-89, reference compound]
MEK, erk1/2 and RSK phosphorylation ([2]; indicated doses, 20 min, no RANTES): induced

modulation of expression of any of the receptor transcripts examined [3]: did not significantly modulate
expression of TNF-α, RANTES, KC, MIP-1α, MIP-2, and MCP-1 transcripts [1]: no effect
Molecule: MCP-1: recombinant mouse CC-chemokine, purchased from BD-PharMingen

CX3CR1 and CXCR4 expression [3]: reduced
change in CCR5 transcripts [3]: little or no change
increase of CCR1 transcripts [3]: 55%
Molecule: TNF-α

expression of transcripts for MIP-1α [1]: induced
Molecule: PKI: protein kinase A inhibitor 14-22 amide (SGRTGRRNA-NH2; UniProt P61925 14-22, looked up, fragment) [reference compound]

expression of TNF-α, RANTES, KC, MIP-1α, MIP-2, and MCP-1 transcripts [1]: up-regulated
B1: MIP-1β: recombinant mouse CC-chemokine, purchased from R&D System (protein, UniProt P14097 24-92, looked up)
C-C motif chemokine 4: APMGSDPPTSCCFSYTSRQLHRSFVMDYYETSSLCSKPAVVFLTKRGRQICANPSEPWVTEYMSDLELN

expression of TNF-α, RANTES, KC, MIP-1α, MIP-2, and MCP-1 transcripts [1]: up-regulated
B2: MIP-1α: recombinant mouse CC-chemokine, purchased from R&D System (protein, UniProt P10855 24-92, looked up)
C-C motif chemokine 3: APYGADTPTACCFSYSRKIPRQFIVDYFETSSLCSQPGVIFLTKRNRQICADSKETWVQEYITDLELNA

Second part, the molecule before the results:

Molecule: C[S+]([O-])c1ccc(-c2nc(-c3ccncc3)c(-c3ccc(F)cc3)[nH]2)cc1 (stereo not drawn) [SB203580, reference compound]
effect on RANTES-mediated transcription of chemokine RNA [1]: failed to modulate
effect on RANTES-induced KC reporter activity (murine KC promoter): did not inhibit
effect on erk1/2 and RSK phosphorylation induced by H-89 [2]: fail to block

Molecule: CN(C)CCCn1cc(C2=C(c3c[nH]c4ccccc34)C(=O)NC2=O)c2ccccc21 [GF109203, reference compound]
MEK phosphorylation ([2]; protein kinase C inhibitor control, 20 min): failed to stimulate

Molecule: C=C[C@@]1(C)CC(=O)[C@]2(O)[C@@]3(C)[C@@H](O)CCC(C)(C)[C@@H]3[C@H](O)[C@H](OC(C)=O)[C@@]2(C)O1 [forskolin, reference compound]
increase of intracellular cAMP levels [4]: about 4 fold

Molecule: N#CC(=C(/N)Sc1ccccc1N)/C(C#N)=C(\N)Sc1ccccc1N [U0126, reference compound]
effect on H-89 induced chemokine/cytokine transcription [1]: inhibited; also recorded: blocked
effect on RANTES-induced chemokine message [1]: blocked induction of chemokine transcripts
effect on background level of RANTES transcript [1]: failed to diminish
inhibition of RANTES-induced TNF-α and chemokine transcription [1]: partially inhibited; also recorded: completely inhibited
effect on RANTES-induced KC reporter activity (murine KC promoter): inhibit reporter activity
effect on PKA activity (PKA): neither U0126 nor Raf-1 inhibitor decreased PKA activity
effect on erk1/2 and RSK phosphorylation induced by H-89 [2]: blocked
effect on RANTES-induced RSK phosphorylation ([2]; varying concentrations before 100 ng/ml RANTES, 20 min): block RSK phosphorylation in a dose dependent fashion

Molecule: Nc1ncnc2c1nc(Br)n2C1OC2COP(O)(=S)OC2C1O (stereo not drawn) [Rp-8-bromo-cAMP, reference compound]
expression of transcripts for MIP-1α [1]: induced

Molecule: O=c1c(-c2ccc(O)cc2)coc2cc(O)cc(O)c12 [Genistein, genistein, reference compound]
effect on RANTES-induced chemokine message ([1]; U0126 50 μM, genistein 100 μM, wortmannin 1 μM, added 30 min prior to chemokine, 3 h RANTES): block chemokine message

B3: IL-1: recombinant murine IL-1β, purchased from Invitrogen (protein, UniProt P10749 118-269, looked up)
Interleukin-1 beta: VPIRQLHYRLRDEQQKSLVLSDPYELKALHLNGQNINQQVIFSMSFVQGEPSNDKIPVALGLKGKNLYLSCVMKDGTPTLQLESVDPKQYPKKKMEKRFVFNKIEVKSKVEFESAEFPNWYISTSQAEHKPVFLGNNSGQDIIDFTMESVSS
activation of the three MAP kinases (ERK1/2, SAPK/JNK, p38) ([2]; 20 ng/ml IL-1β, 20 min): activated
